Drawing on ChEMBL document CHEMBL5241060, “Glycorandomization: A promising diversification strategy for the drug development” (Eur J Med Chem, 2021), this text covers IC50 and MIC for five compounds.

Broadly, the IC50 is the concentration at which inhibition is half-maximal. Read a high IC50 as weaker potency in that assay. As usually defined, the MIC is the lowest concentration that inhibits growth of the organism. Read a high MIC as a less susceptible organism.

In one test the test system is MDA-MB-231. In words: Inhibition of cell migration in human MDA-MB-231 cells. It is filed as functional, cell-based.
Test [1] concerns Escherichia coli. In words: Antibacterial activity against tetracycline resistant Escherichia coli. It is filed as functional.
The subject of test [2] is Escherichia coli. In words: Antibacterial activity against tetracycline resistant Escherichia coli 1-849. It is filed as functional.

≈ marks a conversion by molar mass, not a printed value.

`CCCCCCCCCCCCCC(=O)NCCNC(=O)C(C)(C)C(=O)NCCO[C@@H]1O[C@H](COC(C)=O)[C@@H](O[C@@H]2O[C@H](COC(C)=O)[C@H](OC(C)=O)[C@H](OC(C)=O)[C@H]2OC(C)=O)[C@H](OC(C)=O)[C@H]1OC(C)=O`: the IC50 in the test on MDA-MB-231 was greater than 50 µM.

As to `C[C@H]1O[C@@H](O[C@@H]2[C@@H](O)[C@H](N)C[C@H](N)[C@H]2O[C@H]2O[C@H](CN)[C@@H](O)[C@H](O)[C@H]2N)[C@H](O)[C@@H](O)[C@@H]1N`, the lowest concentration to inhibit growth in the test with Escherichia coli [1] (MIC) was 9 µM (≈ 4.21 µg/mL). For `CON(CC(=O)Nc1ccc2c(c1O)C(=O)C1=C(O)[C@]3(O)C(=O)C(C(N)=O)=C(O)[C@@H](N(C)C)[C@@H]3[C@@H](O)[C@@H]1[C@H]2C)[C@H]1O[C@H](CO)[C@@H](O)[C@H](O)[C@H]1N`, in the test on Escherichia coli [2], the MIC is 4 µg/mL (≈ 5.65 µM). Regarding `C[C@H]1O[C@@H](O[C@@H]2[C@@H](O)[C@H](N)C[C@H](N)[C@H]2O[C@H]2O[C@H](CN)[C@@H](O)[C@H](O)[C@H]2N)[C@H](O)[C@@H](O)[C@H]1N`, the MIC against Escherichia coli [1] is 9 µM (≈ 4.21 µg/mL). Same read-out and setting: under `NC[C@@H]1O[C@H](O[C@H]2[C@@H](O)[C@H](O[C@@H]3[C@@H](O)[C@H](N)C[C@H](N)[C@H]3O[C@H]3O[C@H](CN)[C@@H](O)[C@H](O)[C@H]3N)O[C@@H]2CO)[C@H](N)[C@@H](O)[C@@H]1O` [FRAMYCETIN] stands 2 µM (≈ 1.23 µg/mL).
